Measured values from patent US10669588B2, “Methods for sub-typing and treating cancer” (HI-STEM GGMBH im Deutschen, priority 2014, dated 2020).
Where two headings read alike, the source gives them in different places.

Legend:
[1] = test system: exocrine-like PACO cells; format: cell-based, human
Method: (§1) Quantitative results were analyzed by one-way analysis of variance (multiple groups/grouped analysis) and Student's t test (two groups), using GraphPad Prism (Graph Pad Software). Survival analysis was performed using Mantel-Cox log-rank test as well as Cox proportional hazards multivariate analysis using the Statistical Package for the Social Sciences (IPM SPSS software). Additionally, Pearson chi-squared test was used for comparative data analysis, using SPSS. We considered p<0.05 (two-sided) as statistically significant. For GSEA a False Discovery Rate (FDR) of <0.2 was considered statistically significant. Treatment data were evaluated by determining the activity area (Barretina et al., 2012) from each dose response curve by adding max (100-mean response, 0) for every concentration. Activity areas from the same biological replicate were compared by paired t-test. Calculations were performed in R Version 3.1.0 (Chee et al., 2013).

[2] = test system: CYP3A5; assay: CYP3A5 mRNA (qRT-PCR) and protein (Western blot) expression in PACO cells after drug exposure; format: cell-based, human; settings: for CYP3A5 expression in response to drug: QM-PDA (PACO9) and classical (PACO2) PACO lines, 10 μM drug; for CYP3A5 mRNA and protein expression in response to drug: exocrine-like PACO10, PACO14, 10 μM drug vs basal level; for CYP3A5 mRNA expression in drug-resistant cell lines: PACO2, PACO7 after 8 weeks of increasing doses, vs control cell lines
[3] = test system: CYP3A4 and CYP3A7; settings: for expression of CYP3A4 and CYP3A7 in response to drug: PACO2, PACO10, PACO14, PACO9, 10 μM drug; for expression of CYP3A4 and CYP3A7 in drug-resistant cell lines: PACO2, PACO7 after 8 weeks of increasing doses
[4] = test system: classical and QM-PDA PACO cells; assay: Drug treatment assay, relative cell viability (CellTiterBlue); format: cell-based, human; settings: for drug sensitivity after ketoconazole pre-treatment (relative cell viability, activity area): QM-PDA (PACO9) and classical (PACO2), 100 nM ketoconazole pre-treatment for 2 hours vs vehicle, 48 hours; for drug sensitivity (relative cell viability): classical and QM-PDA subtype PACO lines, 1 μM or 10 μM, after 48 hours
Method: as §1

[5] = test system: SNU5 cells; assay: Paclitaxel sensitivity of gastric cancer cells; format: cell-based, human; settings: gastric cancer cell line SNU5
[6] = test system: HepG2 cells; assay: Paclitaxel sensitivity of hepatocellular carcinoma cells
[7] = test system: drug-resistant sublines of classical (PACO2) and QM-PDA (PACO7) cells; assay: Drug sensitivity of drug-resistant sublines from 8-week treatment; settings: for resistance of sublines to the drug used for long-term treatment: PACO2, PACO7 treated with increasing doses over 8 weeks, vs DMSO-control treated parental lines
[8] = test system: tumors derived from exocrine-like PACO lines (PACO10, PACO14); assay: In vivo drug treatment of subcutaneous shCYP3A5 or shScr PACO tumors; parameters: species or system NSG mice; settings: 100 mg/kg oral gavage, 5 days on / 2 days rest, 14 days
Method: Tumors were established by subcutaneously injecting 5×10^5 shCYP3A5 or shScr PACO cells into female NOD.Cg-Prkdc^scid II2rg^tm1Wjl (NSG) mice (n=48) using Matrigel (2 mg/ml) in a total injection volume of 100 μl. After the tumors reached a size of approximately 200 mm^3, mice were randomized into eight groups (n=6 each) for drug administration. Erlotinib was prepared in 0.5% methylcellulose, 0.1% Tween 80 and 99.4% water for injection (WFI). Erlotinib (100 mg/kg) or vehicle were then administrated by oral gavage at 5 consecutive days followed by 2 days of rest, for duration of 14 days. Tumor volume was determined twice weekly by calliper measurements and calculated according to the formula (length×height×width)×(π/6). Tumor growth was calculated for each individual tumor by normalizing to the tumor volume at day 0. After two weeks of treatment, mice were sacrificed and tumors were resected for further analysis.

[9] = test system: CYP3A5; assay: Measurement of conversion of erlotinib and dasatinib in cell supernatant (LC-MS/MS); format: in vitro ADME, human; settings: 1 μM and 10 μM; for metabolism of drug in the absence of CYP3A5: CYP3A5 siRNA transfected exocrine-like PACO14, PACO18; for conversion of drug (disappearance of unmodified structure from supernatant): exocrine-like PACO14, PACO18, six time points
Method: In brief, the amount of unmodified dasatinib and erlotinib in the supernatant of cells was monitored by quantitative LC-MS/MS analysis on an AB Sciex QTrap 5500 tandem mass spectrometer.
500 μl of reaction media were quenched with 1,000 μL of acetonitrile at each time point and mixed. After centrifugation clear supernatants were pre-diluted with PACO media and acetonitrile at a ratio 1:25. 100 μL of the sample were transferred into a new vial, followed by addition of 10 μL (S)-(−)-Propranolol hydrochloride solution (105 μg/L) and finally vigorously mixed. 10 μL were injected onto column. Calibration and quality control samples were prepared by spiking either dasatinib or erlotinib to the PACO media. The sample was injected onto a PerfectSil Target ODS-3, 3 μm, 100×2.1 mm HPLC column (MZ-Analysentechnik, Mainz, Germany), using an Agilent 1100 (Agilent, Waldbrunn, Germany) binary pump and degasser, with a CTC PAL sampler (CTC Analytics, Zwingen, Switzerland). The column temperature was 35° C. Chromatographic separation was performed by gradient elution at a constant flow rate of 250 μL/min for 15 minutes. The gradient consisted of 20 mM NH4OAc plus 0.1% formic acid (mobile phase A) and 400 mM NH4OAc/methanol/acetonitrile 5:5:90 plus 0.1% formic acid (mobile phase B). The gradient applied was 0.0 min, 70% A/30% B; 1.5 min 70% A/30% B; 3.0 min 5% A/95% B; 11.0 min 5% A/95% B; 11.5 min 70% A/30% B and 15 min 70% A/30% B. The eluate was directed to an AB Sciex QTrap 5500 tandem mass spectrometer (AB Sciex, Darmstadt, Germany) with an electron spray ionization (ESI) source from 4 to 8 min runtime. Mass transitions of 488.1 to 401.1 for dasatinib, 394.0 to 278.1 for erlotinib and 260.1 to 116.1 for (S)-(−)-Propranolol were monitored. […] Nitrogen was produced by a high purity nitrogen generator (CMC Instruments) and applied to curtain, collision and drying gasses. De-clustering potentials, collision energy and collision exit potential were as follows: 26 V, 39 V and 12 V for dasatinib, 16 V, 43 V and 26 V for erlotinib and 61 V, 23 V and 14 V for (S)-(−)-Propranolol.

[10] = test system: CYP3A5; assay: CYP3A5 expression in xenografts after paclitaxel treatment in vivo (qRT-PCR, immunohistochemistry); parameters: species or system mice; settings: classical subtype (PACO17) xenografts; after 18 days of treatment; vs vehicle
[11] = test system: CYP3A4 and CYP3A7; assay: CYP3A4 and CYP3A7 expression in xenografts after paclitaxel treatment in vivo (qRT-PCR); parameters: species or system mice; settings: classical subtype (PACO17) xenografts; after 18 days of treatment; vs vehicle
[12] = exocrine-like subtype PACO lines, 1 μM or 10 μM, after 48 hours

SMILES: CCc1c2c(nc3ccc(OC(=O)N4CCC(N5CCCCC5)CC4)cc13)-c1cc3c(c(=O)n1C2)COC(=O)[C@]3(O)CC [irinotecan]
- drug sensitivity after knockdown of CYP3A5 [1]: sensitive
- drug sensitivity (relative cell viability) ([1]; exocrine-like subtype compared to the other two subtypes, 1 μM and 10 μM, 48 h and 7 d): highly resistant

SMILES: Nc1ccn([C@@H]2O[C@H](CO)[C@@H](O)C2(F)F)c(=O)n1 [gemcitabine]
- drug sensitivity after CYP3A5 siRNA knockdown (relative cell viability, activity area) [1]: remained unchanged
- drug sensitivity (relative cell viability) [1, 12]: almost completely resistant
- CYP3A5 expression in response to drug [2]: did not prompt CYP3A5 expression
- CYP3A5 mRNA and protein expression in response to drug [2]: did not lead to the induction of CYP3A5
- expression of CYP3A4 and CYP3A7 in response to drug [3]: not induced
- drug sensitivity after ketoconazole pre-treatment (relative cell viability, activity area) [4]: remained unchanged
- drug sensitivity (relative cell viability) [4]: sensitive

SMILES: CC(=O)N1CCN(c2ccc(OCC3COC(Cn4ccnc4)(c4ccc(Cl)cc4Cl)O3)cc2)CC1 (stereo not drawn) [ketoconazole]
- sensitization to paclitaxel by inhibition of CYP activity [5]: strongly sensitized
- sensitization to paclitaxel by inhibition of CYP function ([6]; HepG2 cells, compared with CYP3A5 knockdown): even stronger sensitization
- sensitization of paclitaxel-resistant cell lines by co-treatment ([7]; paclitaxel-resistant PACO2 and PACO7 sublines, co-treatment with paclitaxel): comparable sensitization

SMILES: C#Cc1cccc(Nc2ncnc3cc(OCCOC)c(OCCOC)cc23)c1 [erlotinib]
- drug sensitivity after CYP3A5 siRNA knockdown (relative cell viability, activity area) [1]: dramatically sensitized
- drug sensitivity after ketoconazole pre-treatment (relative cell viability, activity area) ([1]; exocrine-like (PACO14), 100 nM ketoconazole pre-treatment for 2 hours vs vehicle, 48 hours): significantly more sensitive
- drug sensitivity (relative cell viability) [1, 12]: almost completely resistant
- CYP3A5 mRNA expression in drug-resistant cell lines [2]: significantly higher
- CYP3A5 expression in response to drug [2]: did not prompt CYP3A5 expression
- CYP3A5 mRNA and protein expression in response to drug [2]: strongly induced
- growth of CYP3A5 knockdown tumors ([8]; shCYP3A5 tumors): completely inhibited
- effect on growth of control tumors ([8]; shScr control tumors): no effect
- metabolism of drug in the absence of CYP3A5 [9]: completely abolished
- conversion of drug (disappearance of unmodified structure from supernatant) [9]: rapid conversion
- expression of CYP3A4 and CYP3A7 in drug-resistant cell lines [3]: not detectable
- expression of CYP3A4 and CYP3A7 in response to drug [3]: not induced
- drug sensitivity after ketoconazole pre-treatment (relative cell viability, activity area) [4]: remained unchanged
- drug sensitivity (relative cell viability) [4]: sensitive
- resistance of sublines to the drug used for long-term treatment [7]: significantly higher resistance

SMILES: Cc1nc(Nc2ncc(C(=O)Nc3c(C)cccc3Cl)s2)cc(N2CCN(CCO)CC2)n1 [dasatinib]
- drug sensitivity after CYP3A5 siRNA knockdown (relative cell viability, activity area) [1]: dramatically sensitized
- CYP3A5 mRNA expression in drug-resistant cell lines [2]: significantly higher
- CYP3A5 expression in response to drug [2]: did not prompt CYP3A5 expression
- CYP3A5 mRNA and protein expression in response to drug [2]: strongly induced
- metabolism of drug in the absence of CYP3A5 [9]: completely abolished
- conversion of drug (disappearance of unmodified structure from supernatant) [9]: rapid conversion
- expression of CYP3A4 and CYP3A7 in drug-resistant cell lines [3]: not detectable
- expression of CYP3A4 and CYP3A7 in response to drug [3]: not induced

SMILES: CC(=O)O[C@H]1C(=O)[C@@]2(C)[C@H]([C@H](OC(=O)c3ccccc3)[C@]3(O)C[C@H](OC(=O)[C@H](O)[C@@H](NC(=O)c4ccccc4)c4ccccc4)C(C)=C1C3(C)C)[C@]1(OC(C)=O)CO[C@@H]1C[C@@H]2O [paclitaxel]
- CYP3A5 mRNA expression in drug-resistant cell lines [2]: significantly higher
- sensitivity to drug ([6]; HepG2 cells treated with non-targeting control siRNA): almost completely resistant
- sensitivity to drug after knockdown of CYP3A5 ([6]; HepG2 cells, siRNA-mediated knockdown of CYP3A5): significantly sensitized
- expression of CYP3A4 and CYP3A7 in drug-resistant cell lines [3]: not detectable
- CYP3A5 expression in treated xenografts [10]: upregulation of CYP3A5
- expression of CYP3A4 and CYP3A7 in treated xenografts [11]: not upregulated
- resistance of sublines to the drug used for long-term treatment [7]: significantly higher resistance
